Source: article PMC4300089, “Structure-Guided Design of Selective Epac1 and Epac2 Agonists” (PLoS Biology, 2015)

Tests used:
PKA-Iα = molecular target: T1, PKA-Iα (Homo sapiens, UniProt P10644); assay: PKA activity assay (coupled spectrophotometric, Kemptide), PKA-Iα; format: biochemical; conditions: PKAIα
T1 construct: made in house
Method: The recombinant human PKA catalytic subunit (Cα1) and the four human PKA regulatory subunits (RIα, RIβ, RIIα, RIIβ) were expressed, purified, and characterized as described. […] PKA holoenzymes were formed by mixing the R- and C-subunit at a molar ratio of 1.2:1 and extensive dialysis against 20 mM MOPS (pH 7.0), 150 mM NaCl, 2.5 mM β-mercaptoethanol, supplemented with 1 mM ATP and 10 mM MgCl2 for PKA-I at 4°C overnight. PKA holoenzymes were used at about 20 nM for the activation assay. The apparent activation constants (Kact) were determined by fitting the concentration-dependent activity to a sigmoid dose-response model.

Epac2^fl = molecular target: T2, Epac2^fl (Mus musculus, UniProt Q9EQZ6); assay: Epac activation assay, full length Epac2; format: biochemical; design: made in house
T2 sequence (Q9EQZ6 1-993 isoform Q9EQZ6-3): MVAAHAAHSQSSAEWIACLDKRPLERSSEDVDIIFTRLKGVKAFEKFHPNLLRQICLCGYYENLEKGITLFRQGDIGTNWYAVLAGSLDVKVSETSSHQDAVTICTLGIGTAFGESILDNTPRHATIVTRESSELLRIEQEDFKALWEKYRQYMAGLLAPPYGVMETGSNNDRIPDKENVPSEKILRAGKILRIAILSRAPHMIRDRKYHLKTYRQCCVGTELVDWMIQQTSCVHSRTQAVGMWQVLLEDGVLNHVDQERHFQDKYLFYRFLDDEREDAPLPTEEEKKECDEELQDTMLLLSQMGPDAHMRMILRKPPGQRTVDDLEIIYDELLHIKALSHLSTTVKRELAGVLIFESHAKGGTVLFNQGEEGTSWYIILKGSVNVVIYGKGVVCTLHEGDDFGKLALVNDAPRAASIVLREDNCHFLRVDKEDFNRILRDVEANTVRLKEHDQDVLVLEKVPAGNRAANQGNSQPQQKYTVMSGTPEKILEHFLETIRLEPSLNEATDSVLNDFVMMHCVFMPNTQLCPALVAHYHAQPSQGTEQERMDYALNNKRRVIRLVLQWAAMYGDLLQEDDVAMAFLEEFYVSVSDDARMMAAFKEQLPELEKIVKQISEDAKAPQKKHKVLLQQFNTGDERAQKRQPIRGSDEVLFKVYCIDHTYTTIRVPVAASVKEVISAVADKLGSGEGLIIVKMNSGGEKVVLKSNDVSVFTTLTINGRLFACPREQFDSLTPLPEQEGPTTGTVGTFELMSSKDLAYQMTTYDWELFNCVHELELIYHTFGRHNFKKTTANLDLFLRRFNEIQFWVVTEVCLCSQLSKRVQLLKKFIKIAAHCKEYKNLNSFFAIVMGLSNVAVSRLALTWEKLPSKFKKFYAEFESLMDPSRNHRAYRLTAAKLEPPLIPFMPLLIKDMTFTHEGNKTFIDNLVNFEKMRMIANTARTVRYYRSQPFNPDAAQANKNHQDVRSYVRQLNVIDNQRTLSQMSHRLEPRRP
Method: Murine Epac2 was used as all previous structural studies were performed with it.
The activity of Epac was determined by a fluorescence assay. […] The fluorescence intensity of Rap1B•mGDP is approximately twice that of free mGDP, and thus, nucleotide exchange can be observed as a decay in fluorescence upon the addition of excess unlabeled GDP.

T1 sequence (P10644 whole entry): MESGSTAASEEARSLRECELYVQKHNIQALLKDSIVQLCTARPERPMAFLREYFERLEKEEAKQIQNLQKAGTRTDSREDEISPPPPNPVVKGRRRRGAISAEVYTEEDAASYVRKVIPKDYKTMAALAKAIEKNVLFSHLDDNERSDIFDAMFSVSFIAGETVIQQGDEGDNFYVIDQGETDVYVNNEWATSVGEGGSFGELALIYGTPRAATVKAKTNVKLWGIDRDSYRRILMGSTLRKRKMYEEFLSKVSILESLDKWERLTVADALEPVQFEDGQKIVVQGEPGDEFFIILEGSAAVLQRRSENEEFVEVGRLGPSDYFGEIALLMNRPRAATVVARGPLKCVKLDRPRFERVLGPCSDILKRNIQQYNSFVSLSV

Q: How did the “A (PKA activity)” value (PKA-Iα; concentration 1 μM) turn out when `Nc1ncnc2c1ncn2[C@@H]1O[C@@H]2COP(=O)(O)O[C@H]2[C@H]1O` [cAMP, reference compound] was run?
A: The value was 2.37E+01 U/mg.

Q: And the “A (PKA activity)” value (PKA-Iα; concentration 1.00E+01 μM)?
A: The value was 2.34E+01 U/mg.

Q: And the “A (PKA activity)” value (PKA-Iα; concentration 1.00E+02 μM)?
A: Its value is 2.51E+01 U/mg.

Q: And the “A (PKA activity)” value (PKA-Iα; concentration 1.00E-01 μM)?
A: The value was 1.43E+01 U/mg.

Q: What about the “A (PKA activity)” value (PKA-Iα; concentration 1.00E-02 μM) of the same molecule?
A: Its value is 4.4268 U/mg.

Q: And the “A (PKA activity)” value (PKA-Iα; concentration 1.00E-03 μM)?
A: Its value is 1.4399 U/mg.

Q: And the “A (PKA activity)” value (PKA-Iα; concentration 1.00E-05 μM)?
A: The value was 2.9393 U/mg.

Q: And the “A (PKA activity)” value (PKA-Iα; concentration 2.50E-01 μM)?
A: The value was 1.93E+01 U/mg.

Q: What about the “A (PKA activity)” value (PKA-Iα; concentration 2.50E-02 μM) of the same molecule?
A: The value was 7.9492 U/mg.

Q: What about the “A (PKA activity)” value (PKA-Iα; concentration 5.00E-02 μM) of the same molecule?
A: Its value is 9.6152 U/mg.

Q: And the kobs (Epac2^fl; 0.2 μM compound)?
A: The kobs was 1.9e-05 s⁻¹.

Q: What about the kobs (Epac2^fl; 0.3 μM compound) of the same molecule?
A: Its kobs is 2e-05 s⁻¹.

Q: What about the kobs (Epac2^fl; 0.4 μM compound) of the same molecule?
A: The kobs was 2.1e-05 s⁻¹.

Q: And the kobs (Epac2^fl; 0.5 μM compound)?
A: The kobs was 2.1e-05 s⁻¹.

Q: What about the kobs (Epac2^fl; 0.6 μM compound) of the same molecule?
A: The kobs was 2.5e-05 s⁻¹.

Q: And the kobs (Epac2^fl; 0.7 μM compound)?
A: The kobs was 2.36e-05 s⁻¹.

Q: What about the kobs (Epac2^fl; 0.8 μM compound) of the same molecule?
A: Its kobs is 2.47e-05 s⁻¹.

Q: What about the kobs (Epac2^fl; 1 μM compound) of the same molecule?
A: Its kobs is 2.84e-05 s⁻¹.

Q: What about the kobs (Epac2^fl; 2 μM compound) of the same molecule?
A: The kobs was 3.47e-05 s⁻¹.

Q: What about the kobs (Epac2^fl; 3 μM compound) of the same molecule?
A: The kobs was 4.1e-05 s⁻¹.

Q: And the kobs (Epac2^fl; 4 μM compound)?
A: The kobs was 4.71e-05 s⁻¹.

Q: And the kobs (Epac2^fl; 5 μM compound)?
A: Its kobs is 5.23e-05 s⁻¹.

Q: And the kobs (Epac2^fl; 6 μM compound)?
A: Its kobs is 5.05e-05 s⁻¹.

Q: What about the kobs (Epac2^fl; 7 μM compound) of the same molecule?
A: Its kobs is 5.49e-05 s⁻¹.

Q: And the kobs (Epac2^fl; 8 μM compound)?
A: The kobs was 6.35e-05 s⁻¹.

Q: What about the kobs (Epac2^fl; 10 μM compound) of the same molecule?
A: Its kobs is 7.22e-05 s⁻¹.

Q: And the kobs (Epac2^fl; 20 μM compound)?
A: The kobs was 0.000116 s⁻¹.

Q: And the kobs (Epac2^fl; 30 μM compound)?
A: Its kobs is 0.000142 s⁻¹.

Q: What about the kobs (Epac2^fl; 40 μM compound) of the same molecule?
A: Its kobs is 0.000159 s⁻¹.

Q: And the kobs (Epac2^fl; 50 μM compound)?
A: The kobs was 0.000167 s⁻¹.

Q: And the kobs (Epac2^fl; 60 μM compound)?
A: The kobs was 0.000192 s⁻¹.

Q: What about the kobs (Epac2^fl; 70 μM compound) of the same molecule?
A: Its kobs is 0.000198 s⁻¹.

Q: What about the kobs (Epac2^fl; 80 μM compound) of the same molecule?
A: The kobs was 0.000203 s⁻¹.

Q: And the kobs (Epac2^fl; 100 μM compound)?
A: The kobs was 0.000207 s⁻¹.

Q: What about the kobs (Epac2^fl; 200 μM compound) of the same molecule?
A: The kobs was 0.000219 s⁻¹.

Q: And the kobs (Epac2^fl; 400 μM compound)?
A: The kobs was 0.000212 s⁻¹.

Q: And the kobs (Epac2^fl; 600 μM compound)?
A: The kobs was 0.000207 s⁻¹.

Q: And the kobs (Epac2^fl; 800 μM compound)?
A: The kobs was 0.000224 s⁻¹.

Q: `Cc1ccc(CSc2nc3c(N)ncnc3n2[C@@H]2O[C@@H]3CO[P@](O)(=S)O[C@H]3[C@H]2O)cc1` [S-230, Sp-8-pMeBnT-cAMPS] was tested. Which “A (PKA activity)” value (PKA-Iα; concentration 1 μM) did it give?
A: Its value is 2.9904 U/mg.

Q: And the “A (PKA activity)” value (PKA-Iα; concentration 1.00E+01 μM)?
A: The value was 1.9936 U/mg.

Q: And the “A (PKA activity)” value (PKA-Iα; concentration 1.00E-01 μM)?
A: The value was 3.8864 U/mg.

Q: What about the “A (PKA activity)” value (PKA-Iα; concentration 1.00E-02 μM) of the same molecule?
A: The value was 2.632 U/mg.

Q: What about the “A (PKA activity)” value (PKA-Iα; concentration 1.00E-03 μM) of the same molecule?
A: The value was 3.2928 U/mg.

Q: What about the “A (PKA activity)” value (PKA-Iα; concentration 1.00E-05 μM) of the same molecule?
A: The value was 2.7664 U/mg.

Q: What about the “A (PKA activity)” value (PKA-Iα; concentration 5.00E+02 μM) of the same molecule?
A: The value was 2.9232 U/mg.

Q: And the kobs (Epac2^fl; 0.2 μM compound)?
A: The kobs was 2.5e-05 s⁻¹.

Q: And the kobs (Epac2^fl; 0.3 μM compound)?
A: The kobs was 2.9e-05 s⁻¹.

Q: And the kobs (Epac2^fl; 0.4 μM compound)?
A: The kobs was 3.1e-05 s⁻¹.

Q: What about the kobs (Epac2^fl; 0.5 μM compound) of the same molecule?
A: Its kobs is 3.3e-05 s⁻¹.

Q: What about the kobs (Epac2^fl; 0.6 μM compound) of the same molecule?
A: Its kobs is 3.6e-05 s⁻¹.

Q: What about the kobs (Epac2^fl; 0.7 μM compound) of the same molecule?
A: Its kobs is 4e-05 s⁻¹.

Q: And the kobs (Epac2^fl; 0.8 μM compound)?
A: The kobs was 4.1e-05 s⁻¹.

Q: What about the kobs (Epac2^fl; 1 μM compound) of the same molecule?
A: The kobs was 4.7e-05 s⁻¹.

Q: And the kobs (Epac2^fl; 2 μM compound)?
A: Its kobs is 8.9e-05 s⁻¹.

Q: What about the kobs (Epac2^fl; 3 μM compound) of the same molecule?
A: Its kobs is 0.000128 s⁻¹.

Q: What about the kobs (Epac2^fl; 4 μM compound) of the same molecule?
A: Its kobs is 0.000139 s⁻¹.

Q: And the kobs (Epac2^fl; 5 μM compound)?
A: The kobs was 0.000145 s⁻¹.

Q: What about the kobs (Epac2^fl; 6 μM compound) of the same molecule?
A: Its kobs is 0.000194 s⁻¹.

Q: And the kobs (Epac2^fl; 7 μM compound)?
A: The kobs was 0.000209 s⁻¹.

Q: And the kobs (Epac2^fl; 8 μM compound)?
A: The kobs was 0.000213 s⁻¹.

Q: And the kobs (Epac2^fl; 10 μM compound)?
A: The kobs was 0.000238 s⁻¹.

Q: What about the kobs (Epac2^fl; 20 μM compound) of the same molecule?
A: The kobs was 0.000358 s⁻¹.

Q: And the kobs (Epac2^fl; 30 μM compound)?
A: Its kobs is 0.000429 s⁻¹.

Q: And the kobs (Epac2^fl; 40 μM compound)?
A: Its kobs is 0.000467 s⁻¹.

Q: And the kobs (Epac2^fl; 50 μM compound)?
A: The kobs was 0.000491 s⁻¹.

Q: What about the kobs (Epac2^fl; 60 μM compound) of the same molecule?
A: The kobs was 0.000519 s⁻¹.

Q: And the kobs (Epac2^fl; 70 μM compound)?
A: Its kobs is 0.00055 s⁻¹.

Q: And the kobs (Epac2^fl; 80 μM compound)?
A: The kobs was 0.000558 s⁻¹.

Q: And the kobs (Epac2^fl; 100 μM compound)?
A: Its kobs is 0.000582 s⁻¹.

Q: What about the kobs (Epac2^fl; 200 μM compound) of the same molecule?
A: Its kobs is 0.000643 s⁻¹.

Q: What about the kobs (Epac2^fl; 400 μM compound) of the same molecule?
A: Its kobs is 0.00061 s⁻¹.

Q: What about the kobs (Epac2^fl; 600 μM compound) of the same molecule?
A: The kobs was 0.000556 s⁻¹.

Q: And the kobs (Epac2^fl; 800 μM compound)?
A: The kobs was 0.000527 s⁻¹.
